What was measured:
[1] = molecular target: GluN2C (Homo sapiens (Human), UniProt Q14957); test: Two electrode voltage-clamp recordings, single concentration, GluN2C; type: cell-based; conditions: pH 6.9
[2] = molecular target: CYP2D6 (Homo sapiens (Human), UniProt P10635); test: Cytochrome P450 inhibition (Vivid CYP blue screening kit), CYP2D6; type: in vitro ADME; conditions: 1 μM
Experimental: Inhibition of CYP2D6 and CYP3A4 was accomplished using recombinant human isoforms and a Vivid CYP blue screening kit (Invitrogen, USA) by incubating 2-fold serial dilutions (9 samples) of the test compound with kit reagents and reaction buffer according to the manufacturer's methods in a 96-well plate. The plate was then incubated at room temperature for 30 min before fluorescence was measured with a plate reader. For these studies, reference standards ketoconazole (CYP3A4) and quinidine (CYP2D6) were used as controls.

[3] = Plasma protein binding, rapid equilibrium dialysis, mouse; type: in vitro ADME; conditions: n=2
Experimental: Plasma protein binding was performed with a rapid equilibrium dialysis (RED) device containing dialysis membrane with a molecular weight cut-off of 8,000 Daltons according to the manufacturer's instructions (ThermoFisher, USA). The plasma samples (pH 7.4) and the test compound solution (1 or 5 μM) or reference standards (Warfarin and Propranolol, 10 μM) were combined (DMSO final conc 0.1%). 300 μL of this spiked plasma sample was added to the sample chamber, and 500 μL of blank PBS buffer (pH 7.4) was added into the buffer chamber. The RED device was sealed with adhesive film and then incubated at 37° C. with shaking at 300 rpm for 4 h. Following incubation, an aliquot (50 μL) was removed from each well (spiked plasma and buffer side) and diluted with equal volume of the corresponding opposite matrix (blank buffer or blank plasma) to nullify the matrix effect, and then extracted for analysis by LC-MS/MS. The amount of free material was determined by:
% Free=(LC-MS/MS peak area of test compound in buffer side/LC-MS/MS peak area of test compound in plasma side)×100%

[4] = molecular target: Alpha2C (Homo sapiens (Human), UniProt P18825); test: Off-target radioligand binding displacement (NIMH PDSP); conditions: pH 7.4
Sequence of Alpha2C (P18825 whole entry, the tested form may be a part): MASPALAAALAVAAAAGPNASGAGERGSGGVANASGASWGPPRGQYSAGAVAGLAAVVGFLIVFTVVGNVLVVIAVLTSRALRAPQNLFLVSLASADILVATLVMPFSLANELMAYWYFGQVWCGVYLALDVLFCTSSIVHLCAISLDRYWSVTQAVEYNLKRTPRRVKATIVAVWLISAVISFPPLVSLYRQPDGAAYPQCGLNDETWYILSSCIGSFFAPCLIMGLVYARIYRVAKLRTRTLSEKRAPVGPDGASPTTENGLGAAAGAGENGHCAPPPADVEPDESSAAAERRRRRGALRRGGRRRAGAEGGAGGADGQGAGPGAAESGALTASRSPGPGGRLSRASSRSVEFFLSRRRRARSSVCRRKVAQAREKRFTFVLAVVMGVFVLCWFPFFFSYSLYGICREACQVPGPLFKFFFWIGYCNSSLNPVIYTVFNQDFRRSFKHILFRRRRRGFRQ
Experimental: Briefly, the compound was submitted to the NIMH PDSP and screened at a single concentration (10 μM) of test article under equilibrium conditions for ability to displace specific radioligands from binding to their targets expressed in mammalian cell membranes in vitro. Each receptor target was assayed in quadruplicate and the % inhibition of radioligand binding at each target determined at pH 7.4. […]

[5] = tested on: MCAO model of transient ischemia in mice; test: In vivo model of transient focal ischemia, middle cerebral artery occlusion (MCAO); design: species or system mouse; conditions: for infarct volume: 24 hours post reperfusion
Experimental: All protocols involving animals were approved by the Georgia State University IACUC, an AAALAC accredited program, and was under the supervision of a licensed veterinarian. Mice were group housed, provided nestlets and shelters with access to food pellets and water ad libitum under a 12-hour light/dark cycle. Mice were brought to a separate room and housed for at least 30 min prior to initiation of the surgery.
Mice (C57B16, >90 days old, Jackson Labs) were subjected to transient (60 min) middle cerebral artery occlusion (MCAO) and the infarct volume measured 24 hours post reperfusion, similar as previously described (Yuan, et al., Neuron, 2015, 85(6):1305-1318). Male mice were used for this experiment to reduce potential confound by progesterone variation through estrous cycles, which can have neuroprotective actions. Briefly, transient ischemia was induced in anesthetized (2% isoflurane/98% O2) mice by insertion of an intraluminal suture into the MCA for 60 minutes (Junge, et al., Proc NatlAcad Sci USA, 2003, 100: 13019-13024). The body temperature of each mouse was monitored with a rectal thermometer and maintained at 37° C. through use of a homeothermic blanket. Changes in local cerebral blood flow were monitored with a laser Doppler flowmeter probe (Perimed) secured via glue to the skull 4-6 mm lateral and 2 mm posterior of bregma. An 11-mm 5-0 Dermalon or Look (SP185) black nylon non-absorbable suture with the tip flame-rounded was introduced into the left internal carotid artery through the external carotid artery stump up to 10.5-11 mm of suture insertion. Only mice with a reduction in blood flow to <20% for 60 min and with recovery of blood flow to >90% following removal of the suture were progressed to complete the study. Following the occlusion period, mice were placed back in their cages on a warming blanket (37° C.) for several hours and monitored for righting reflex and ability to ambulate upon a gentle touch. At 24 hours post occlusion, mice were euthanized by isoflurane overdose, the brain quickly removed and cut into 2 mm sections and incubated in 2% 2,3,5-triphenyltetrazolium chloride (TTC) in phosphate buffered saline (pH 7.4) at 37° C. for 20 min, then placed at 4° C. for imaging. The infarct area was then measured using the NIH IMAGE software (Scion Corporation, Beta 4.0.2 release). The lesioned area of each section was determined by digital threshold reductions in TTC staining to ≤20% lower intensity than that observed in the contralateral cortex. The infarct region was then manually outlined with a curser and the cubic volume of the infarct determined for each slice, then summed across all four slices from each animal to obtain total infarct volume. […]

[6] = in vivo; conditions: BALB/c, mouse, plasma
Experimental: Formulation for pharmacokinetic studies used 2% or 10% N′,N′-dimethylacetamide, 10% propylene glycol, and 30% 2-hydroxypropyl-beta-cyclodextrin in water and a dose volume of 10 mL/kg (all routes of administration).
Briefly, mice were administered a 2 mg/kg or a 5 mg/kg dose (n=3 each) by IP injection (10 mL/kg dose volume) and blood samples collected at 0.08, 0.25, 0.5, 1, 2, 4, 8 and 24 hours post dose in tubes containing sodium heparin on ice. 100 μL of plasma was combined with 50 μL of internal standard (haloperidol, 10 μg/mL) and tubes were then spun at 4000 g for 10 min (4° C.) and plasma transferred to clean tubes and stored at −80° C. until analysis.
Blood samples were collected on ice in sodium heparin tubes at 0.08, 0.25, 0.5, 1, 2, 4, 8, and 24 hours post dose. Samples were prepared and analyzed as described above except here the internal standard was fluconazole (10 μg/mL).

Sequence of GluN2C (Q14957 20-1233, other chains not shown): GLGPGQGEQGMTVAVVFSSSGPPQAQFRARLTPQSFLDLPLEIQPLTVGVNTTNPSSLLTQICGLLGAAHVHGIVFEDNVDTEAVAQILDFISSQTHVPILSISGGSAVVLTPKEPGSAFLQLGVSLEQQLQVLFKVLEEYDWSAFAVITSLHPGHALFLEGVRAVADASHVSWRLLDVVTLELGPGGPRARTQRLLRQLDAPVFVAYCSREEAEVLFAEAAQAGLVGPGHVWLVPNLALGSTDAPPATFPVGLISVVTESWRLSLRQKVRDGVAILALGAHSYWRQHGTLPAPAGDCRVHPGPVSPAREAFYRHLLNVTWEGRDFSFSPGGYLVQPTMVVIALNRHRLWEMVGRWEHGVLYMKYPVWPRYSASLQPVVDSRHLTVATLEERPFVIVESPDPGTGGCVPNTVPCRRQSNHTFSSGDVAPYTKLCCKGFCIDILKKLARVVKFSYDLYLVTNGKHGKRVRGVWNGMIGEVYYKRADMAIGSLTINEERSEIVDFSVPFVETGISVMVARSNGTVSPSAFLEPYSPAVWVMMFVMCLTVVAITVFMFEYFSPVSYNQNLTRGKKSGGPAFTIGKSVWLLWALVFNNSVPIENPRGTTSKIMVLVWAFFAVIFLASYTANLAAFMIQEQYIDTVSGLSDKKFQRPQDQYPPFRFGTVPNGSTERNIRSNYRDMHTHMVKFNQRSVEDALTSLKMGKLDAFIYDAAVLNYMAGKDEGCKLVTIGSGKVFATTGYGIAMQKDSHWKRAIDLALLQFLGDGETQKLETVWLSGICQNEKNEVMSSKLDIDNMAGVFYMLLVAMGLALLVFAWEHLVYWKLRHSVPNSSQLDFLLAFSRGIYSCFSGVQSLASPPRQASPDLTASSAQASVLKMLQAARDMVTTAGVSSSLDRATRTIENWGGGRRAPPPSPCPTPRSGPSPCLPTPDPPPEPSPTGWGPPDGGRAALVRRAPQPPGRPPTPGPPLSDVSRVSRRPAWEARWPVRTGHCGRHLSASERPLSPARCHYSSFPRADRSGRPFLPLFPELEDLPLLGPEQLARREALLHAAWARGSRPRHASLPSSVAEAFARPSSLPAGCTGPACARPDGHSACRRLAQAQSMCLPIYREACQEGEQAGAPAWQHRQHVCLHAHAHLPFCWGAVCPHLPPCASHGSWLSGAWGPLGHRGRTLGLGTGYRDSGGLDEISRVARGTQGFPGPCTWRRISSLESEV
Sequence of CYP2D6 (P10635 whole entry, canonical isoform): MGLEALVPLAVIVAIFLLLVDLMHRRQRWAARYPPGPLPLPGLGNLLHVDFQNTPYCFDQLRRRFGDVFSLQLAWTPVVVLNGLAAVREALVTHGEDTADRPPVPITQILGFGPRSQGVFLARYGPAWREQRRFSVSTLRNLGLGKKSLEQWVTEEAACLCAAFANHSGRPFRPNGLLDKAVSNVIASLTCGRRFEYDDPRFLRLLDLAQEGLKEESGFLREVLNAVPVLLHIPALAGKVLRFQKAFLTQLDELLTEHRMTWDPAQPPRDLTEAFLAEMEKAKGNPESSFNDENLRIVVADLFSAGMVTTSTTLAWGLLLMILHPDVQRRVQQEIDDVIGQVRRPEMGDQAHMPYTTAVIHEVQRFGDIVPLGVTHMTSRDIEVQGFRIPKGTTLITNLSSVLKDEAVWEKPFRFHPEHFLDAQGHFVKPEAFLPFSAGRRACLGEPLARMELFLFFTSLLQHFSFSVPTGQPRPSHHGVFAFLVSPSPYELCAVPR

off-target inhibition against GluN2C ([1]; 3 μM): no noticeable off-target inhibition
GluN2C % residual ([1]; % current remaining after 3 μM compound): 100.1 (pH 6.9) %
inhibition of CYP2D6 [2]: did not inhibit
bound to mouse plasma proteins [3]: 98.2%
Ki [4]: 3.09 µM
AUC(0-t) ([6]; iv, 3 mg/kg): 17800 ng·h/mL
Cmax ([6]; iv, 3 mg/kg): 2350 ng/mL
Tmax ([6]; iv, 3 mg/kg): 4.8 min
Vd ([6]; iv, 3 mg/kg): 1.59 L/kg
clearance ([6]; iv, 3 mg/kg): 2.44 mL/min/kg
half-life ([6]; iv, 3 mg/kg): 514 min
bioavailability ([6]; oral, 10 mg/kg): 75.7%
AUC(0-inf) ([6]; po, 10 mg/kg): 49500 ng·h/mL
AUC(0-t) ([6]; po, 10 mg/kg): 45000 ng·h/mL
Cmax ([6]; po, 10 mg/kg): 3600 ng/mL
Tmax ([6]; po, 10 mg/kg): 60 min
half-life ([6]; po, 10 mg/kg): 424 min
AUC(0-inf) ([6]; male, ip, 2 mg/kg): 5690 ng·h/mL
AUC(0-t) ([6]; male, ip, 2 mg/kg): 4750 ng·h/mL
Cmax ([6]; male, ip, 2 mg/kg): 581 ng/mL
Tmax ([6]; male, ip, 2 mg/kg): 30 min
half-life ([6]; male, ip, 2 mg/kg): 594 min
AUC(0-inf) ([6]; male, ip, 5 mg/kg): 13100 ng·h/mL
AUC(0-t) ([6]; male, ip, 5 mg/kg): 11800 ng·h/mL
Cmax ([6]; male, ip, 5 mg/kg): 1430 ng/mL
Tmax ([6]; male, ip, 5 mg/kg): 30 min
half-life ([6]; male, ip, 5 mg/kg): 450 to 594 min
SMILES: O=C1CCc2cc(OC[C@H](O)CN3CCN(c4ccc(C(F)(F)F)cc4)CC3)ccc2N1 [NP10679]
infarct volume ([5]; 5 mg/kg IP): 56±6.6 mm^3
infarct volume ([5]; 10 mg/kg IP): 49±3.0 mm^3
maximum infarct volume reduction ([5]; IP dose prior to 60 min MCAO): 52%
ED50 ([5]; Mus musculus, 1 h, IP dose prior to 60 min MCAO, read-out: ED50 for infarct volume reduction): 1 mg/kg

— US20240360091A1, “GLUN2B-SUBUNIT SELECTIVE ANTAGONISTS OF THE N-METHYL-D-ASPARTATE RECEPTORS WITH ENHANCED POTENCY AT ACIDIC PH” (Emory University, priority 2021, published 2024)
